# Reference: US9795644B2, “Reduction of in vitro genotoxicity of pollen extracts by removal of flavonoids” (STALLERGENES, priority 2009, dated 2017)
# Tests used:
# [1] = system: mouse lymphoma thymidine kinase gene mutation; experiment: MLA/TK test of quercetin by Meltz and MacGregor (4-h short term protocol), modelled by equation (2); format: cell-based; conditions: quercetin 0.83-0.86 μg/mL; from data of Meltz and MacGregor
# Description: To our knowledge, quercetin is the only flavonoid aglycone that was studied in the MLA/TK test, namely in a work by Meltz and MacGregor who used a 4-h short term protocol (Mutat. Res. 1981; 88: 317-324).
# The induction ratios that should result from those amounts was deduced from the data of Meltz and MacGregor. Such deduced induction ratios were then compared to the induction ratio actually observed.
# The lowest concentration of quercetin tested by Meltz and MacGregor was 10 μg/mL. Therefore, to determine the ratio that should be obtained with the lowest concentration of 0.864 μg/mL or below, the relationship between (a) the concentrations of quercetin tested by Meltz and MacGregor and (b) the corresponding induction ratios they observed was mathematically modelled. Since those ratios started reaching a plateau at the first concentration tested, we choose to use a logarithmic function for such a modelization. Given that the ratio is necessarily of 1 for 0 μg/mL of mutagen (control), the logarithmic function will be of the form: y=a·ln(x+1)+1 (1)
# Using the ratios obtained by Meltz and MacGregor for 10, 20 and 30 μg/mL of quercetin allows a mathematical modelization by the following equation with an excellent correlation coefficient (r=0.99): y=3.0822×ln(x+1)+1 (2).
# [2] = other in vitro genotoxic tests; cited from earlier work
# [3] = incubation at 37° C. under MLA/TK conditions, deglycosylation followed by reverse phase HPLC; format: physicochemical; conditions: 24 h at 37° C., in presence of grass pollen proteins; from peak areas
# Description: Grass pollen flavonoids were first identified by reverse phase HPLC, according to their hydrophobicity. Reverse phase HPLC was performed on a Atlantis dC18 column, 4.6×250 mm, 5 μm, Waters, Milford, Mass., USA; with a gradient elution: 0.1% formic acid qsp water to 0.1% formic acid qsp acetonitrile in 30 min; flow rate: 1 mL/min; run time: 45 min; detection wavelength: 354 or 254 nm; injection volume 50 μL. Importantly, grass pollen extracts were diluted 5 times in methanol before analysis in order to solubilize both flavonoid glycosides and flavonoid aglycones, the latter being hardly soluble in water.
# Analysis of samples was performed using the HPLC method described above for the detection of flavonoids.
# As (a) the sum of all peaks areas was rather well conserved and (b) the decrease of a flavonoid diglucoside-corresponding peak was related to the increase or appearance of flavonoid monoglycoside and/or aglycone-corresponding peak(s), it could be considered that the ratio between the two peaks areas is equivalent to the molar ratio of the corresponding flavonoids. On this basis, the decrease in quercetin-diglucoside leaded to an equal increase in molecules of quercetin-monoglucoside and in molecules of quercetin aglycone.
Structure (SMILES),induction ratio interpolated with equation (2) [1],genotoxicity rank among flavonoid aglycones [2],share deglycosylated into quercetin (aglycone) [3] [%]
O=c1c(O)c(-c2ccc(O)c(O)c2)oc2cc(O)cc(O)c12 [quercetin],2.9,the most genotoxic flavonoid aglycone,–
"O=c1c(O[C@@H]2O[C@H](CO)[C@@H](O)[C@H](O)[C@H]2O)c(-c2ccc(O[C@@H]3O[C@H](CO)[C@@H](O)[C@H](O)[C@H]3O)c(O)c2)oc2cc(O)cc(O)c12 [quercetin-diglucoside, quercetin-3,4′-diglucoside]",–,–,~20
